The target in this experiment is T1, VEB-1 (Escherichia coli, UniProt Q7BVU7).
T1 construct: gene blaVEB; natural allele amplified and cloned in pCR-Blunt II-TOPO, E. coli Top10; crude extract
Nature of the experiment: cephalothin hydrolysis, UV […] nm, crude extract. The experiment is classed as biochemical. The note with it: 100 µM cephalothin, 100 mM sodium phosphate pH 7.0, 3 min preincubation.

Where two headings read alike, the source gives them in different places.

Regarding `NC(=O)[C@@H]1CC[C@@H]2CN1C(=O)N2OS(=O)(=O)O` [avibactam], where the note is “read-out: AVI”, the IC50 was found to be 900 nM.

As to `C[C@]1(Cn2ccnn2)[C@H](C(=O)O)N2C(=O)C[C@H]2S1(=O)=O` [tazobactam], the IC50 (read-out: CLA) is 50 nM.

With `O=C(O)C[C@@H]1CC[C@H](NC(=O)Cc2cccs2)B(O)O1` [vaborbactam], the IC50 (read-out: VAB) amounted to 1100 nM.

As to `O=C(NC1CCNCC1)[C@@H]1CC[C@@H]2CN1C(=O)N2OS(=O)(=O)O` [relebactam], the IC50 (read-out: REL) stood at 2400 nM.

As for `O=C(O)[C@H]1/C(=C/CO)O[C@@H]2CC(=O)N21` [clavulanic acid], under “read-out: CLA”, the IC50 came out at 50 nM.

Values taken from publication PMC10105652, “Resistance to ceftazidime-avibactam in a KPC-2–producing Klebsiella pneumoniae caused by the extended-spectrum beta-lactamase VEB-25” (European Journal of Clinical Microbiology & Infectious …, 2023).
